Results published in publication PMC5218480 (PLoS ONE, 2017).

Test system: MV-4-11 cells
Assay: Gene expression microarray analysis (Affymetrix PrimeView) and GSEA
Assay type: cell-based, human
Set-up: RFU PODN (11730768_x_at) / Fold change /veh PODN (11730768_x_at) / RFU LINC00158 (11744669_a_at) / Fold change /veh LINC00158 (11744669_a_at) / RFU DUSP10 (11751237_a_at) / Fold change /veh DUSP10 (11751237_a_at) / RFU ID3 (11757404_x_at) / Fold change /veh ID3 (11757404_x_at) / RFU PLEKHG5 (11737974_s_at) / Fold change /veh PLEKHG5 (11737974_s_at) / RFU LRRC4B (11730491_at) / Fold change /veh LRRC4B (11730491_at) / RFU GIMAP4 (11747438_a_at) / Fold change /veh GIMAP4 (11747438_a_at) / RFU KRT8 (11758183_x_at) / Fold change /veh KRT8 (11758183_x_at) / RFU CNN1 (11734310_a_at) / Fold change /veh CNN1 (11734310_a_at) / RFU VPS37D (11726825_at) / Fold change /veh VPS37D (11726825_at) / RFU C10orf10 (11716522_x_at) / Fold change /veh C10orf10 (11716522_x_at) / RFU KIR2DL2 /// KIR2DL4 /// KIR2DL5A /// KIR2DL5B /// KIR2DS1 /// KIR2DS2 /// KIR2DS3 /// KIR2DS4 /// KIR3DL3 /// KIR3DL3 /// KIR3DS1 (11738374_at) / Fold change /veh KIR2DL2 /// KIR2DL4 /// KIR2DL5A /// KIR2DL5B /// KIR2DS1 /// KIR2DS2 /// KIR2DS3 /// KIR2DS4 /// KIR3DL3 /// KIR3DL3 /// KIR3DS1 (11738374_at) / RFU C1QL1 (11718748_at) / Fold change /veh C1QL1 (11718748_at) / RFU TMPRSS4 (11747572_a_at) / Fold change /veh TMPRSS4 (11747572_a_at) / RFU HAMP (11756126_x_at) / Fold change /veh HAMP (11756126_x_at) / RFU RNFT2 (11725882_a_at) / Fold change /veh RNFT2 (11725882_a_at) / RFU NR4A2 (11747474_a_at) / Fold change /veh NR4A2 (11747474_a_at) / RFU ABCC12 (11746883_a_at) / Fold change /veh ABCC12 (11746883_a_at) / RFU TMEM136 (11760407_x_at) / Fold change /veh TMEM136 (11760407_x_at) / RFU CLDN22 /// WWC2 (11732394_at) / Fold change /veh CLDN22 /// WWC2 (11732394_at) / RFU HLA-DPB1 (11760878_x_at) / Fold change /veh HLA-DPB1 (11760878_x_at) / RFU SPINT1 (11716480_a_at) / Fold change /veh SPINT1 (11716480_a_at) / RFU GAP43 (11754022_s_at) / Fold change /veh GAP43 (11754022_s_at) / RFU A4GNT (11735810_at) / Fold change /veh A4GNT (11735810_at) / RFU PRB3 (11715151_x_at) / Fold change /veh PRB3 (11715151_x_at) / RFU TUBB4B (11761932_at) / Fold change /veh TUBB4B (11761932_at) / RFU CAPN14 (11732068_a_at) / Fold change /veh CAPN14 (11732068_a_at) / RFU TMCC2 (11721928_a_at) / Fold change /veh TMCC2 (11721928_a_at) / RFU IRGQ (11745062_a_at) / Fold change /veh IRGQ (11745062_a_at) / RFU FAM174B (11720279_a_at) / Fold change /veh FAM174B (11720279_a_at) / RFU TMPRSS4 (11748680_a_at) / Fold change /veh TMPRSS4 (11748680_a_at) / RFU FAM212B (11763350_a_at) / Fold change /veh FAM212B (11763350_a_at) / RFU PLEKHG5 (11743358_a_at) / Fold change /veh PLEKHG5 (11743358_a_at) / RFU ZSCAN30 (11745921_a_at) / Fold change /veh ZSCAN30 (11745921_a_at) / RFU CMKLR1 (11741424_a_at) / Fold change /veh CMKLR1 (11741424_a_at) / RFU LOC101060620 /// MAPK8IP1 (11723275_at) / Fold change /veh LOC101060620 /// MAPK8IP1 (11723275_at) / RFU SPTSSB (11747773_x_at) / Fold change /veh SPTSSB (11747773_x_at) / RFU PRSS12 (11739890_at) / Fold change /veh PRSS12 (11739890_at) / RFU BIN1 (11741810_x_at) / Fold change /veh BIN1 (11741810_x_at) / RFU WNT11 (11732464_a_at) / Fold change /veh WNT11 (11732464_a_at) / RFU C10orf10 (11716521_a_at) / Fold change /veh C10orf10 (11716521_a_at) / RFU C5orf56 (11738089_at) / Fold change /veh C5orf56 (11738089_at) / RFU CYB561 (11721691_x_at) / Fold change /veh CYB561 (11721691_x_at) / RFU ANKRD19P (11752326_a_at) / Fold change /veh ANKRD19P (11752326_a_at) / RFU OR2T12 /// OR2T33 /// OR2T8 (11738714_s_at) / Fold change /veh OR2T12 /// OR2T33 /// OR2T8 (11738714_s_at) / RFU VCAN (11748164_a_at) / Fold change /veh VCAN (11748164_a_at) / RFU JSRP1 (11732532_at) / Fold change /veh JSRP1 (11732532_at) / RFU KRTAP10-11 (11738290_x_at) / Fold change /veh KRTAP10-11 (11738290_x_at) / RFU MYO3A (11730013_a_at) / Fold change /veh MYO3A (11730013_a_at) / RFU EBF3 (11725865_a_at) / Fold change /veh EBF3 (11725865_a_at) / RFU CAMK2N1 (11719241_x_at) / Fold change /veh CAMK2N1 (11719241_x_at) / RFU C5orf56 (11738088_a_at) / Fold change /veh C5orf56 (11738088_a_at) / RFU OLFML3 (11715873_a_at) / Fold change /veh OLFML3 (11715873_a_at) / RFU LOC100653217 /// NTM (11731650_a_at) / Fold change /veh LOC100653217 /// NTM (11731650_a_at) / RFU MAPK11 (11762145_a_at) / Fold change /veh MAPK11 (11762145_a_at) / RFU FIZ1 (11724087_x_at) / Fold change /veh FIZ1 (11724087_x_at) / RFU OASL (11726364_x_at) / Fold change /veh OASL (11726364_x_at) / RFU SOX15 (11748057_x_at) / Fold change /veh SOX15 (11748057_x_at) / RFU CD79A (11719716_a_at) / Fold change /veh CD79A (11719716_a_at) / RFU HIST1H1D (11736915_at) / Fold change /veh HIST1H1D (11736915_at) / RFU CASKIN2 (11723855_a_at) / Fold change /veh CASKIN2 (11723855_a_at) / RFU LOC730098 (11760151_x_at) / Fold change /veh LOC730098 (11760151_x_at) / RFU OR4N2 (11742367_at) / Fold change /veh OR4N2 (11742367_at) / RFU PRRT2 (11749266_a_at) / Fold change /veh PRRT2 (11749266_a_at) / RFU SNX32 (11753110_a_at) / Fold change /veh SNX32 (11753110_a_at) / RFU CDHR5 (11726645_a_at) / Fold change /veh CDHR5 (11726645_a_at) / RFU RCAN1 (11760418_a_at) / Fold change /veh RCAN1 (11760418_a_at) / RFU FAM167A (11723789_a_at) / Fold change /veh FAM167A (11723789_a_at) / RFU FAM26E (11764081_at) / Fold change /veh FAM26E (11764081_at) / RFU ISYNA1 (11749810_s_at) / Fold change /veh ISYNA1 (11749810_s_at) / RFU ACY1 (11761880_at) / Fold change /veh ACY1 (11761880_at) / RFU 11764098_at / Fold change /veh 11764098_at / RFU SAMD14 (11745864_x_at) / Fold change /veh SAMD14 (11745864_x_at) / RFU NPB (11741838_a_at) / Fold change /veh NPB (11741838_a_at) / RFU TMPRSS6 (11731388_a_at) / Fold change /veh TMPRSS6 (11731388_a_at) / RFU KRTAP10-2 (11738614_at) / Fold change /veh KRTAP10-2 (11738614_at) / RFU ARHGAP8 /// PRR5-ARHGAP8 (11727945_x_at) / Fold change /veh ARHGAP8 /// PRR5-ARHGAP8 (11727945_x_at) / RFU KRTAP5-7 /// NADSYN1 (11734609_at) / Fold change /veh KRTAP5-7 /// NADSYN1 (11734609_at) / RFU RASL12 (11751679_a_at) / Fold change /veh RASL12 (11751679_a_at) / RFU CDKN2B (11736163_a_at) / Fold change /veh CDKN2B (11736163_a_at) / RFU PRF1 (11729649_at) / Fold change /veh PRF1 (11729649_at) / RFU, ZNF638 /// ZNF638-IT1 / Fold change vs veh, ZNF638 /// ZNF638-IT1 / RFU, PANK3 / Fold change vs veh, PANK3 / RFU, SH3YL1 / Fold change vs veh, SH3YL1 / RFU, ZEB2 / Fold change vs veh, ZEB2 / RFU, NRIP1 / Fold change vs veh, NRIP1 / RFU, PTTG1IP / Fold change vs veh, PTTG1IP / RFU, CAPN2 / Fold change vs veh, CAPN2 / RFU, MED14 / Fold change vs veh, MED14 / RFU, SNORA58 / Fold change vs veh, SNORA58 / RFU, C1orf63 / Fold change vs veh, C1orf63 / RFU, LRRFIP1 / Fold change vs veh, LRRFIP1 / RFU, NDUFAF7 / Fold change vs veh, NDUFAF7 / RFU, SLC12A2 / Fold change vs veh, SLC12A2 / RFU, IBTK / Fold change vs veh, IBTK / RFU, ESF1 / Fold change vs veh, ESF1 / Fold change vs veh, TMEM50B / RFU, TAOK1 / Fold change vs veh, TAOK1 / RFU, ACBD3 / Fold change vs veh, ACBD3 / RFU, TMA16 / Fold change vs veh, TMA16 / RFU, RWDD3 / Fold change vs veh, RWDD3 / RFU, BCAT1 / Fold change vs veh, BCAT1 / RFU, EDEM3 / Fold change vs veh, EDEM3 / RFU, TMEM33 / Fold change vs veh, TMEM33 / RFU, WDR75 / Fold change vs veh, WDR75 / RFU, AHCTF1 / Fold change vs veh, AHCTF1 / RFU, TFRC / Fold change vs veh, TFRC / RFU, ZDHHC17 / Fold change vs veh, ZDHHC17 / RFU, NOM1 / Fold change vs veh, NOM1 / RFU, ARL8B / Fold change vs veh, ARL8B / RFU, ZBTB11 / Fold change vs veh, ZBTB11 / RFU, TAMM41 / Fold change vs veh, TAMM41 / RFU, KIAA1704 /// LOC100996395 / Fold change vs veh, KIAA1704 /// LOC100996395 / RFU, ING1 / Fold change vs veh, ING1 / RFU, TRMT61B / Fold change vs veh, TRMT61B / RFU, FUBP3 / Fold change vs veh, FUBP3 / RFU, TP53 / Fold change vs veh, TP53 / RFU, TNKS2 / Fold change vs veh, TNKS2 / RFU, ZFP14 / Fold change vs veh, ZFP14 / RFU, ACTR2 / Fold change vs veh, ACTR2 / RFU, PPP3R1 / Fold change vs veh, PPP3R1 / RFU, PIK3R1 / Fold change vs veh, PIK3R1 / RFU, HNRNPA1 / Fold change vs veh, HNRNPA1 / RFU, RNF170 / Fold change vs veh, RNF170 / RFU, ZNF28 / Fold change vs veh, ZNF28 / RFU, RNGTT / Fold change vs veh, RNGTT / RFU, OGT / Fold change vs veh, OGT / RFU, BRD1 / Fold change vs veh, BRD1 / RFU, MARS / Fold change vs veh, MARS / RFU, ZNF655 / Fold change vs veh, ZNF655 / RFU, FAHD1 / Fold change vs veh, FAHD1 / RFU, BDP1 / Fold change vs veh, BDP1 / RFU, LRRCC1 / Fold change vs veh, LRRCC1 / RFU, ARID1A / Fold change vs veh, ARID1A / RFU, ZNF146 / Fold change vs veh, ZNF146 / RFU, ZNF330 / Fold change vs veh, ZNF330 / RFU, GPN3 / Fold change vs veh, GPN3 / RFU, C9orf123 / Fold change vs veh, C9orf123 / RFU, N4BP2L2 / Fold change vs veh, N4BP2L2 / RFU, ARFIP1 / Fold change vs veh, ARFIP1 / RFU, FAM179B / Fold change vs veh, FAM179B / RFU, BCL10 / Fold change vs veh, BCL10 / RFU, UHRF1BP1L / Fold change vs veh, UHRF1BP1L / RFU, BET1 / Fold change vs veh, BET1 / RFU, CNOT2 / Fold change vs veh, CNOT2 / RFU, ZNF268 / Fold change vs veh, ZNF268 / Fold change vs veh, ZNF507 / RFU, DGCR2 / Fold change vs veh, DGCR2 / RFU, WDSUB1 / Fold change vs veh, WDSUB1 / Fold change vs veh, HSP90B1 /// MIR3652 / RFU, ADSS / Fold change vs veh, ADSS / RFU, GK / Fold change vs veh, GK / RFU, ZNF148 / Fold change vs veh, ZNF148 / RFU, TAF9 / Fold change vs veh, TAF9 / RFU, SLC1A5 / Fold change vs veh, SLC1A5 / RFU, SLMO2 / Fold change vs veh, SLMO2 / RFU, ABCC4 / Fold change vs veh, ABCC4 / RFU, LOC101060439 /// RAP1B / Fold change vs veh, LOC101060439 /// RAP1B / RFU, RFX7 / Fold change vs veh, RFX7 / RFU, GTPBP10 / Fold change vs veh, GTPBP10 / RFU, CNEP1R1 / Fold change vs veh, CNEP1R1 / RFU, BIVM-ERCC5 /// ERCC5 / Fold change vs veh, BIVM-ERCC5 /// ERCC5 / RFU, ILF3 / Fold change vs veh, ILF3 / RFU 11762660_at / Fold change /veh 11762660_at / RFU VCAN (11757783_s_at) / Fold change /veh VCAN (11757783_s_at) / RFU DDX43 (11728927_at) / Fold change /veh DDX43 (11728927_at) / RFU KRT8 (11758188_x_at) / Fold change /veh KRT8 (11758188_x_at) / RFU NKD1 (11759106_at) / Fold change /veh NKD1 (11759106_at) / RFU SRD5A1 (11742802_a_at) / Fold change /veh SRD5A1 (11742802_a_at) / RFU TPSAB1 /// TPSB2 (11721975_s_at) / Fold change /veh TPSAB1 /// TPSB2 (11721975_s_at) / RFU GSTM3 (11746129_a_at) / Fold change /veh GSTM3 (11746129_a_at) / RFU IL23R (11737362_x_at) / Fold change /veh IL23R (11737362_x_at) / RFU TMEM51 (11727254_a_at) / Fold change /veh TMEM51 (11727254_a_at) / RFU PIWIL2 (11732686_x_at) / Fold change /veh PIWIL2 (11732686_x_at) / RFU ORM1 (11744905_x_at) / Fold change /veh ORM1 (11744905_x_at) / RFU CCDC152 (11743942_at) / Fold change /veh CCDC152 (11743942_at) / RFU ECM1 (11717891_a_at) / Fold change /veh ECM1 (11717891_a_at) / RFU IL23R (11748794_a_at) / Fold change /veh IL23R (11748794_a_at) / RFU TNFAIP8L3 (11732012_x_at) / Fold change /veh TNFAIP8L3 (11732012_x_at) / RFU MBOAT4 (11741988_at) / Fold change /veh MBOAT4 (11741988_at) / RFU 11764193_at / Fold change /veh 11764193_at / RFU TMEM53 (11763286_at) / Fold change /veh TMEM53 (11763286_at) / RFU MAGEB2 (11727129_at) / Fold change /veh MAGEB2 (11727129_at) / RFU TMEM200A (11744735_a_at) / Fold change /veh TMEM200A (11744735_a_at) / RFU CCDC152 (11751479_a_at) / Fold change /veh CCDC152 (11751479_a_at) / RFU FAM211A (11726209_a_at) / Fold change /veh FAM211A (11726209_a_at) / RFU RGS16 (11746705_a_at) / Fold change /veh RGS16 (11746705_a_at) / RFU VCAN (11755009_s_at) / Fold change /veh VCAN (11755009_s_at) / RFU RHOB (11743442_s_at) / Fold change /veh RHOB (11743442_s_at) / RFU RGS16 (11720943_a_at) / Fold change /veh RGS16 (11720943_a_at) / RFU RGS16 (11720944_at) / Fold change /veh RGS16 (11720944_at) / RFU, VPS4B / Fold change vs veh, VPS4B / RFU, CREB1 / Fold change vs veh, CREB1 / RFU, DNAJC13 / Fold change vs veh, DNAJC13 / RFU, GNAQ / Fold change vs veh, GNAQ / RFU, CDK5R1 / Fold change vs veh, CDK5R1 / RFU, ZRANB3 / Fold change vs veh, ZRANB3 / RFU, CUL4A / Fold change vs veh, CUL4A / RFU, CCNY / Fold change vs veh, CCNY / RFU, UFL1 / Fold change vs veh, UFL1 / RFU, COG3 / Fold change vs veh, COG3 / RFU, DIAPH2 / Fold change vs veh, DIAPH2 / RFU, SKA2 / Fold change vs veh, SKA2 / RFU, AFF3 / Fold change vs veh, AFF3 / RFU, LMF1 / Fold change vs veh, LMF1 / RFU, IPO11 / Fold change vs veh, IPO11 / RFU, DFFB / Fold change vs veh, DFFB / RFU, FOXP1 / Fold change vs veh, FOXP1 / RFU, CARD8 / Fold change vs veh, CARD8 / RFU, STRN3 / Fold change vs veh, STRN3 / RFU, ADK / Fold change vs veh, ADK / RFU, RASSF2 / Fold change vs veh, RASSF2 / RFU, WIPF1 / Fold change vs veh, WIPF1 / RFU, LARP1B / Fold change vs veh, LARP1B / RFU, RASA1 / Fold change vs veh, RASA1 / RFU, RB1 / Fold change vs veh, RB1 / RFU, PPFIA1 / Fold change vs veh, PPFIA1 / RFU, MAT2A / Fold change vs veh, MAT2A / RFU, CCT5 / Fold change vs veh, CCT5 / RFU, WDR92 / Fold change vs veh, WDR92 / RFU, CUX1 / Fold change vs veh, CUX1 / RFU, TTC7A / Fold change vs veh, TTC7A / RFU, TMEM135 / Fold change vs veh, TMEM135 / RFU, DEPTOR / Fold change vs veh, DEPTOR / RFU, CPM / Fold change vs veh, CPM / RFU, DNAJB6 / Fold change vs veh, DNAJB6 / RFU, CACNA2D3 / Fold change vs veh, CACNA2D3 / RFU, DTX4 / Fold change vs veh, DTX4 / RFU, TFCP2 / Fold change vs veh, TFCP2 / RFU, GMCL1 /// GMCL1P1 / Fold change vs veh, GMCL1 /// GMCL1P1 / RFU, AEBP2 / Fold change vs veh, AEBP2 / RFU, SNHG1 /// SNORD22 /// SNORD25 /// SNORD26 /// SNORD27 /// SNORD28 /// SNORD29 /// SNORD31 / Fold change vs veh, SNHG1 /// SNORD22 /// SNORD25 /// SNORD26 /// SNORD27 /// SNORD28 /// SNORD29 /// SNORD31 / Fold change (Aza/veh), C12orf56 (ProbeSet 11735607_a_at) / Fold change (ACY-1035/veh), C12orf56 (ProbeSet 11735607_a_at) / Fold change (Aza/veh), FGFR1OP (ProbeSet 11751329_s_at) / Fold change (ACY-1035/veh), FGFR1OP (ProbeSet 11751329_s_at) / Fold change (Aza/veh), VPS36 (ProbeSet 11739960_a_at) / Fold change (ACY-1035/veh), VPS36 (ProbeSet 11739960_a_at) / RFU SYPL1 (11715823_x_at) / Fold change /veh SYPL1 (11715823_x_at) / RFU IGFBP7 (11715501_s_at) / Fold change /veh IGFBP7 (11715501_s_at) / RFU REEP3 (11722064_at) / Fold change /veh REEP3 (11722064_at) / RFU IGLL1 (11728026_x_at) / Fold change /veh IGLL1 (11728026_x_at): dose or concentration left out as unconfirmed
Conditions: ProbeSet 11733831_s_at; LIST D

## Nc1ccc(-c2cccs2)cc1NC(=O)c1ccc2c(c1)cc(C1CC1)n2CCN1CCOCC1 [ACY-1035]
  RFU, GMCL1 /// GMCL1P1: 34.22 RFU
